Experimental data from ChEMBL document CHEMBL5357068, “Discovery of Novel TLR7 Agonists as Systemic Agent for Combination With aPD1 for Use in Immuno-oncology” (ACS Med Chem Lett, 2024).
Active and inactive are the calls of the source. No cut-off for these calls is given here.

Assays:
[1] = Metabolic stability in mouse liver microsomes assessed as compound remaining; format: ADME, Microsome; note: time not given here
in vitro = conditions: PHA-activated T cells
[2] = Metabolic stability in human liver microsomes assessed as compound remaining; format: ADME, Microsome; note: time not given here
[3] = target: Voltage-gated inwardly rectifying potassium channel KCNH2 (Homo sapiens, UniProt Q12809); test: Inhibition of hERG by patch clamp assay; format: toxicity
Toll-like receptor 7 [4] = target: T1, Toll-like receptor 7 (Mus musculus, UniProt P58681)
T1 sequence (P58681 whole entry): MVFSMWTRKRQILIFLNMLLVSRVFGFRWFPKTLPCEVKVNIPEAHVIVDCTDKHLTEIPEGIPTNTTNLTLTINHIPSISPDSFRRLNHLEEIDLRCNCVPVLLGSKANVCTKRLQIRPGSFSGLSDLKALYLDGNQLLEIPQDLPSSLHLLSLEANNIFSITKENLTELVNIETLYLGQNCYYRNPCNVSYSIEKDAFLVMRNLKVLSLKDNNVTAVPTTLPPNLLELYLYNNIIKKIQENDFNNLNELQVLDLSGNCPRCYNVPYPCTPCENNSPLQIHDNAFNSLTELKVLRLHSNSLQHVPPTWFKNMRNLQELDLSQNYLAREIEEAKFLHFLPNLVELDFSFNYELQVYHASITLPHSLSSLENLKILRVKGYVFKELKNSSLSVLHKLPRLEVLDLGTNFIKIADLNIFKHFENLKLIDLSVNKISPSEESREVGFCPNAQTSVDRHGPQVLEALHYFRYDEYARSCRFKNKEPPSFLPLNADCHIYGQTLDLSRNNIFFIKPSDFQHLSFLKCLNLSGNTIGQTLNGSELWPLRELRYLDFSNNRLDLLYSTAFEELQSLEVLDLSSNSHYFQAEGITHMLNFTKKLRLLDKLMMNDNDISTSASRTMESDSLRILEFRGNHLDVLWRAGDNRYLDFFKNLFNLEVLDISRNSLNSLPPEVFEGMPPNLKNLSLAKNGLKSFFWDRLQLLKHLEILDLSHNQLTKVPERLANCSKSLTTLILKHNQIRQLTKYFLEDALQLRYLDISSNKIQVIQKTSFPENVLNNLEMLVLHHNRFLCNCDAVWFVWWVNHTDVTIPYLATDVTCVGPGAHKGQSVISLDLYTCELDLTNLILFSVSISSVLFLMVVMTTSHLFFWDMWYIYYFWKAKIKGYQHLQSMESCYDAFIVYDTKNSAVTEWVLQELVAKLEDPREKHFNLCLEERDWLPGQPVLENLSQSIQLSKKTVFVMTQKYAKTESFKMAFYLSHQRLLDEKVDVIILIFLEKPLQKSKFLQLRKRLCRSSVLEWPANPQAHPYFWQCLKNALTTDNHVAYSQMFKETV

Toll-like receptor 7 [5] = target: T2, Toll-like receptor 7 (Homo sapiens, UniProt Q9NYK1)
T2 sequence (Q9NYK1 whole entry): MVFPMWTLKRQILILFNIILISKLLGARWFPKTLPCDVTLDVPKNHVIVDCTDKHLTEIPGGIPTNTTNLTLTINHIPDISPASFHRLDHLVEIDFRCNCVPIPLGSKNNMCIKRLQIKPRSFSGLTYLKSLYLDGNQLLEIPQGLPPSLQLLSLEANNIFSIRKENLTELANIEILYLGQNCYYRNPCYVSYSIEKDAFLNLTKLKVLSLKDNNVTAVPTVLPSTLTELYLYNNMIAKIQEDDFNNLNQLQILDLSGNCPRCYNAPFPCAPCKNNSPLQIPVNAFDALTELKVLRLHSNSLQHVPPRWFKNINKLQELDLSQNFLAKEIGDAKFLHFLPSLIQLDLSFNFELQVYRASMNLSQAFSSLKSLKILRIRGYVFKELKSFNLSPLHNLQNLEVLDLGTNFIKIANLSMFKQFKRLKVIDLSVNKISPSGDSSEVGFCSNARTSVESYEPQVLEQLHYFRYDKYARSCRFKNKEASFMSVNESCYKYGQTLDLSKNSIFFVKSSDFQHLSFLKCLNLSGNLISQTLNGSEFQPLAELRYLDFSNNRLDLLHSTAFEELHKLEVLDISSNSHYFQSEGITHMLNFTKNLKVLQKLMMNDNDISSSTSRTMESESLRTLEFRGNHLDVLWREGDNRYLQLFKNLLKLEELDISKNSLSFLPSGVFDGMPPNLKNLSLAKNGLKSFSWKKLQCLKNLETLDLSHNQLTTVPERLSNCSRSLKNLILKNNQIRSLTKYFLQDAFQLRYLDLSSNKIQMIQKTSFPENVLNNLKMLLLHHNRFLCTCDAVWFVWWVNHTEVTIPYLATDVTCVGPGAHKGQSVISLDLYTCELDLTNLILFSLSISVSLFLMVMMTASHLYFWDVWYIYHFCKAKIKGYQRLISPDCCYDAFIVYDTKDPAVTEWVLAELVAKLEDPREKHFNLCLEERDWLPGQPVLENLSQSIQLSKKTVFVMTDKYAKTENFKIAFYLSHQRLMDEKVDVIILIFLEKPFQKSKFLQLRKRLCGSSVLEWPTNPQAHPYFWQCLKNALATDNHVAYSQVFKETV

[6] = target: T3, Toll-like receptor 8 (Homo sapiens) (UniProt Q9NR97); test: Agonist activity at TLR8 (unknown origin)
T3 sequence (whole entry): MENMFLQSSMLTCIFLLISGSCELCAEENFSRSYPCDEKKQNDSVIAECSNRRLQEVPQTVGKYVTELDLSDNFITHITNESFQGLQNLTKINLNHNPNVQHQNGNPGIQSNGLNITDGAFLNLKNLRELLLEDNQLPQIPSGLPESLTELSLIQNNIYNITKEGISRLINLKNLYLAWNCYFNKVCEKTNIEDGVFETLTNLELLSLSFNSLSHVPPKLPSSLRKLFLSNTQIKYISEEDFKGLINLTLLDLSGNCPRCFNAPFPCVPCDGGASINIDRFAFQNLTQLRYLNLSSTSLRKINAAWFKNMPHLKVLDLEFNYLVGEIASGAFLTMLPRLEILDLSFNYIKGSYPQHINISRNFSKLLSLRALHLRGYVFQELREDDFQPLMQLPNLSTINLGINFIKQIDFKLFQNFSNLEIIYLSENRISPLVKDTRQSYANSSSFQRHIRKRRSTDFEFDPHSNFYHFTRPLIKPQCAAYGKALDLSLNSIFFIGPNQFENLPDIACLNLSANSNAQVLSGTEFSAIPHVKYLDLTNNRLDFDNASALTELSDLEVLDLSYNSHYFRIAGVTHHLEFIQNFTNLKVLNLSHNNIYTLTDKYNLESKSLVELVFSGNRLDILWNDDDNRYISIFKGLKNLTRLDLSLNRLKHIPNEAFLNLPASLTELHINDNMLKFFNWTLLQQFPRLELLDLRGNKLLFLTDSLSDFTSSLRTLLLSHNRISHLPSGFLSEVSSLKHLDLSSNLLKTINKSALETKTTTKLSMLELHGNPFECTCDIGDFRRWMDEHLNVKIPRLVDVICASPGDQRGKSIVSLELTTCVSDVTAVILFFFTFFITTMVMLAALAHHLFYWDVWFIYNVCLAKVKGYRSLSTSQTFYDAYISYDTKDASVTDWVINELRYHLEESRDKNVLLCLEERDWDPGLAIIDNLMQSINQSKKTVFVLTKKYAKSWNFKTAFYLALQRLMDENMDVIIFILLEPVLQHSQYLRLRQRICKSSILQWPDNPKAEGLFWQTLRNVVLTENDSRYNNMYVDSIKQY

Cytochrome P450 3A4 = Cytochrome P450 3A4 (Homo sapiens, UniProt P08684); test: Inhibition of CYP3A4 (unknown origin) using 7-benzyloxy-4-(trifluoromethyl)-coumarin as substrate preincubated with compound followed by substrate addition at 30 mins; format: ADME
Toll-like receptor 8 = target: T4, Toll-like receptor 8 (Homo sapiens, UniProt Q9NR97); test: Agonist activity at human TLR8
T4 sequence (Q9NR97 whole entry): T3 sequence (whole entry)

Toll-like receptor 7 [7] = target: T1, Toll-like receptor 7; test: Agonist activity at mouse TLR7

Sequence of Voltage-gated inwardly rectifying potassium channel KCNH2 (Q12809 whole entry): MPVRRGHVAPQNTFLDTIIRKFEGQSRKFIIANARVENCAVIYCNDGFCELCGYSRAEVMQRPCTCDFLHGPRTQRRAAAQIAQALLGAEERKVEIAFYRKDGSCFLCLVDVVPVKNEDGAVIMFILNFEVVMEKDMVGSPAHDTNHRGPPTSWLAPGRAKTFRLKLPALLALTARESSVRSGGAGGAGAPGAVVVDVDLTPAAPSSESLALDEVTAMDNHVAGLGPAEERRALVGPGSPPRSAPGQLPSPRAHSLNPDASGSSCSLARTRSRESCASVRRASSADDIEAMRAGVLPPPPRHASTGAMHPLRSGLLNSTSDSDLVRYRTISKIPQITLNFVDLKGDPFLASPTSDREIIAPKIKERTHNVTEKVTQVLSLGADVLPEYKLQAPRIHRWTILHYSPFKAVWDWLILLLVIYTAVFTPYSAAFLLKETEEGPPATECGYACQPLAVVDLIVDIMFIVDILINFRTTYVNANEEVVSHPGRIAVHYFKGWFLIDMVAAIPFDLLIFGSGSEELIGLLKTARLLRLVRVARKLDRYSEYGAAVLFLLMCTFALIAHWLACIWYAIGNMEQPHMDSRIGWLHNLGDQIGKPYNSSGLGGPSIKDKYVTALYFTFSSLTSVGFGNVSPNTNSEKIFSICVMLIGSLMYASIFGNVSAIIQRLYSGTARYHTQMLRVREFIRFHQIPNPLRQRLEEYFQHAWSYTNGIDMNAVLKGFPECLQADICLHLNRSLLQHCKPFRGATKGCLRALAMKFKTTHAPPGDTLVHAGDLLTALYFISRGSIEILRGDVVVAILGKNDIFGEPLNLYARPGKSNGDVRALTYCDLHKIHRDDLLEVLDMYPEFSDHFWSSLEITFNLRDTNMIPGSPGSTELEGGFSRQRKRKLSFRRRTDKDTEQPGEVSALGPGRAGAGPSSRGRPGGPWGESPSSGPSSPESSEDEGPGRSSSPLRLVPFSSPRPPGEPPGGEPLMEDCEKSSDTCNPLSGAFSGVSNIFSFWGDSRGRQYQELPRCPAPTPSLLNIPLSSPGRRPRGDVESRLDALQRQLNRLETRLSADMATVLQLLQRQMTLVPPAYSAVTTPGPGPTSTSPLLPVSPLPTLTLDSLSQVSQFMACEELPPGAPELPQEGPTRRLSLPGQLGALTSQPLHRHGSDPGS
Sequence of Cytochrome P450 3A4 (P08684 whole entry): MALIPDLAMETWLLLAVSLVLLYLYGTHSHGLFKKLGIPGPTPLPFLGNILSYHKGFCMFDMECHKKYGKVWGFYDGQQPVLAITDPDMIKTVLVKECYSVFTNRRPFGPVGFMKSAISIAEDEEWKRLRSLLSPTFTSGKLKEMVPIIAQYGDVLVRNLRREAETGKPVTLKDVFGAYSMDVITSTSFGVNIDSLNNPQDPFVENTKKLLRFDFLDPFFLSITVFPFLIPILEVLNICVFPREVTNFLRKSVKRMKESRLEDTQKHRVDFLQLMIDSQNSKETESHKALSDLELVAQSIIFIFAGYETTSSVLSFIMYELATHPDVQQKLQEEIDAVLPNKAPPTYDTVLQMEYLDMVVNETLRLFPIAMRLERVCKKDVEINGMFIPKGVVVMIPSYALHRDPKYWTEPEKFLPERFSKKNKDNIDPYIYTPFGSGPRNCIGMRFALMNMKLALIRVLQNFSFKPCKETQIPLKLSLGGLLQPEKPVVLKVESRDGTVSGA

| SMILES | Stability [1] | IC50 (in vitro) | Stability [2] | IC50 [3] | also measured |
| --- | --- | --- | --- | --- | --- |
| COc1cc(CNC2CCOCC2)ccc1Cn1ncc2nc(N)nc(N[C@H](CCO)C3CC3)c21 | 87% | > 25 µM | 9% | > 50 µM | – |
| CCCCOc1nc(N)nc2cnn(Cc3ccc(CNC4CCOCC4)cc3OC)c12 | – | > 25 µM | – | – | IC50 (Toll-like receptor 7 [4]): > 5 µM |
| CCC[C@@H](CCO)Nc1nc(N)nc2cnn(Cc3ccc(CNC4CCOCC4)cc3)c12 | 91% | > 25 µM | 90% | > 50 µM | EC50 (Toll-like receptor 7 [4]): > 5 µM |
| CCCCNc1nc(N)nc2cnn(Cc3ccc(C(=O)NC4CCOCC4)cc3OC)c12 | 62% | – | 68% | – | – |
| CC[C@@H](CCO)Nc1nc(N)nc2cnn(Cc3ccc(CNC4CCOCC4)cc3OC)c12 | 84% | > 25 µM | 83% | > 50 µM | IC50 (Toll-like receptor 7 [4]): 1.25 µM |
| CCC[C@@H](CCO)Nc1nc(N)nc2cnn(Cc3ccc(CNC4CCOCC4)c4cccnc34)c12 | 56% | > 25 µM | 56% | > 50 µM | – |
| CCCCNc1nc(N)nc2cnn(Cc3ccc(CNC4COC4)cc3OC)c12 | 46% | – | 55% | – | – |
| CCCCNc1nc(N)nc2ncn(Cc3ccccc3)c12 | – | – | – | – | EC50 (Toll-like receptor 7 [5]): > 5 µM |
| CCC[C@@H](C)Nc1nc(N)nc2cnn(Cc3ccc(CNC4CCOCC4)cc3OC)c12 | 30% | 24.7 µM | 70% | 30.4 µM | – |
| CCC[C@@H](CCNC(C)=O)Nc1nc(N)nc2cnn(Cc3ccc(CNC4CCOCC4)cc3OC)c12 | 91% | > 25 µM | 93% | – | – |
| COc1cc(CNC2CCOCC2)ccc1Cn1ncc2nc(N)nc(N[C@@H](C)CCO)c21 | 100% | > 25 µM | 89% | > 50 µM | IC50 (Toll-like receptor 7 [4]): > 5 µM |
| CCCCNc1nc(N)nc2cnn(Cc3ccc(CN4CCOCC4)cc3OC)c12 | 15% | – | 20% | – | – |
| COc1cc(CNC2CCOCC2)ccc1Cn1ncc2nc(N)nc(N[C@H](CCO)C(C)C)c21 | 63% | > 25 µM | 80% | > 50 µM | – |
| CCCCNc1nc(N)nc2cnn(Cc3ccc(CNCc4ccncc4)cc3OC)c12 | 3% | – | 1% | – | – |
| CCCCNc1nc(N)nc2cnn(Cc3ccccc3OC)c12 | – | – | – | – | EC50 (Toll-like receptor 7 [5]): 0.384 µM |
| CCC[C@@H](CCO)Nc1nc(N)nc2cnn(Cc3cnc(CNC4CCOCC4)cc3OC)c12 | 87% | > 25 µM | 81% | > 50 µM | – |
| CCC[C@@H](CCO)Nc1nc(N)nc2cnn(Cc3ccc(CNC4CCOCC4)cc3F)c12 | 91% | > 25 µM | 66% | > 50 µM | – |
| CCCCNc1nc(N)nc2cnn(Cc3ccc(CN4CC5(CNC5)C4)cc3OC)c12 | 100% | – | 100% | – | – |
| CCC[C@@H](CCO)Nc1nc(N)nc2cnn(Cc3ccc(CNC4CCOCC4)nc3OC)c12 | – | > 25 µM | – | – | – |
| CCCCN(C)c1nc(N)nc2cnn(Cc3ccc(CNC4CCOCC4)cc3OC)c12 | 11% | > 25 µM | 57% | > 50 µM | IC50 (Toll-like receptor 7 [4]): > 5 µM |
| CCC[C@@H](CCO)Nc1nc(N)nc2cnn(Cc3ccc(CNC4CCOCC4)cc3OC(F)F)c12 | 55% | 7 µM | 51% | 30.4 µM | – |
| CCC[C@@H](CO)Nc1nc(N)nc2cnn(Cc3ccc(CNC4CCOCC4)cc3OC)c12 | 77% | > 25 µM | 90% | > 50 µM | – |
| CCCCNc1nc(N)nc2cnn(Cc3ccc(CN4CC5CC4CN5)cc3OC)c12 (stereo not given) | 10% | – | 90% | – | – |
| CCCCNc1nc(N)nc2cnn(Cc3ccc(CN4CCNCC4)cc3OC)c12 | 60% | – | 83% | – | – |
| CCC[C@@H](CCO)Nc1nc(N)nc2cnn(Cc3ccc(CNC4CCOCC4)nc3)c12 | 91% | > 25 µM | 100% | > 50 µM | EC50 (Toll-like receptor 7 [4]): > 5 µM; Activity [6]: inactive |
| CCCCNc1nc(N)nc2cnn(Cc3ccc(CNC4CCC4)cc3OC)c12 | 2% | 16 µM | 41% | 18.8 µM | IC50 (Cytochrome P450 3A4): 6.65 µM; EC50 (Toll-like receptor 8): > 5 µM; EC50 (Toll-like receptor 7 [7]): 0.121 µM |
| CCCCNc1nc(N)nc2cnn(Cc3ccc(Cn4ccnc4)cc3OC)c12 | 26% | – | 1% | – | – |
| CCC[C@@H](CCO)Nc1nc(N)nc2cnn(Cc3ncc(CNC4CCOCC4)cc3OC)c12 | 93% | > 25 µM | 78% | 6 µM | – |
| CCCCNc1nc(N)nc2cnn(Cc3ccc(CN4CCCCC4)cc3OC)c12 | 2% | – | 33% | – | EC50 (Toll-like receptor 7 [4]): 0.225 µM |
| CCCCNc1nc(N)nc2cnn(Cc3ccc(CNC4CCOCC4)cc3OC)c12 | 25% | 22 µM | 68% | – | EC50 (Toll-like receptor 7 [4]): 0.453 µM |
